Experimental data published in patent US8969565B2, “Imidazo[1,2-b]pyridazine-based compounds, compositions comprising them, and methods of their use” (Lexicon Pharmaceuticals, Inc., priority 2012, dated 2015).
pIC50: −log10 of the molar value.

How the values were obtained:
[1] = target: T1, AAK1 (Homo sapiens, UniProt Q2M2I8); assay: P81 filter plate assay; assay type: biochemical; conditions: full-length human AAK1, Mu2 substrate
T1 construct: HA; expressed in transfected cells; host or cells: HEK293F
T1 sequence (Q2M2I8 1-863 isoform Q2M2I8-2): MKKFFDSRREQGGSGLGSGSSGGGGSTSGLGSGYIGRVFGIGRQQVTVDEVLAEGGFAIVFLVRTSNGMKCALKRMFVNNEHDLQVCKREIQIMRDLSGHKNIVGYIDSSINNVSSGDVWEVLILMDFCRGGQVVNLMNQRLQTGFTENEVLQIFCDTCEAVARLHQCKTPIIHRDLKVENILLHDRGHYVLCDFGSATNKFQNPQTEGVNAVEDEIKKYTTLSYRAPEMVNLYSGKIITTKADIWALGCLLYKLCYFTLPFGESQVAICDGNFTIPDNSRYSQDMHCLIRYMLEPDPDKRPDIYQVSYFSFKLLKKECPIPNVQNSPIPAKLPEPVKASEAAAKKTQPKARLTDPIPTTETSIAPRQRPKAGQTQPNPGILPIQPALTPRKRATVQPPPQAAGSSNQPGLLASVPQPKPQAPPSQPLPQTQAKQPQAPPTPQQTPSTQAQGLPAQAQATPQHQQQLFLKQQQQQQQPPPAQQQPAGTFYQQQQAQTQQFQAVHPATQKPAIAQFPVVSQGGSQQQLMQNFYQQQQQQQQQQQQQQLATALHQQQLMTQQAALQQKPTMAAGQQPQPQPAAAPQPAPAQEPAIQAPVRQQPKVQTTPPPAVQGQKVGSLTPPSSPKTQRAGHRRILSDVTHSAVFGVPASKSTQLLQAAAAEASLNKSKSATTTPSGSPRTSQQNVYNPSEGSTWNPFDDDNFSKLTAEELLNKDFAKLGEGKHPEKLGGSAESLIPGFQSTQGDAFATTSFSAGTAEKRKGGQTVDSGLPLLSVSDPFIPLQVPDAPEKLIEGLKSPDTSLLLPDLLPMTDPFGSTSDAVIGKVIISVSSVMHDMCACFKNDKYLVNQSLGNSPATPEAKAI
Experimental: Compounds were serially diluted into a Labcyte LDV plate (Labcyte, cat#LP-0200) using a Mutiprobe (PerkinElmer) and Biomek FX (Beckman Coulter) so that the highest compound concentration was at 96 μM. Compounds were then pinged (75 nL per well) into a Greiner 384-well reaction plate (Greiner, #781076) using an ECHO 550 Liquid Handler (Labcyte). A total of 12 μl reaction buffer (IMAP buffer containing Tween and DTT, from Molecular Devices) was then added to each well of columns 1 and 13 for the negative controls and 12 μl of 2×AAK1 (0.2 nM full-length human protein, NCBI accession no. NP_055726.2) was added to the remaining wells. Enzyme was then pre-incubated with compound for 10 minutes at RT. Reactions were initiated upon Minitrak (PerkinElmer) addition of 12 μl substrate mix containing 2×Mu2 (0.2 μM, full length human protein), 2× cold ATP (2 μM), and 1.3 μCi of hot ^33P-ATP. Reactions proceeded for one hour at RT. Meanwhile, Millipore 384-well P81 filter plates (Millipore, catalog #MZPHNOW10) were placed on a plate washer (Zoom ZW, from Titertek) and pre-wet with 50 μl 1% phosphoric acid. Kinase reactions were then stopped upon addition of 24 μl of 2% phosphoric acid to each well and the Minitrak was then used to transfer 40 μl from each well into the pre-wet Millipore 384-well P81 filter plates. Reaction mixtures were incubated for 10 minutes at RT in the P81 plates, followed by washing five times with 100 μl/well of 1% phosphoric acid using the Zoom filter washer. The bottom of each filter plate was sealed followed by addition of 20 μl Microscint 40 to each well, sealing the top of the plates with Flashplate cover, and then waiting one hour until reading on the TopCount (PerkinElmer).

[2] = target: T1, AAK1; assay: HEK281 cell-based assay (phospho-mu2 Western blot in transfected HEK293F cells); conditions: 3 hours incubation, read-out: CBA IC50
Method in brief: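 HEK293F cells co-transfected with full-length human AAK1/HA and Flag/AP2M1 were treated next day with 5 compound concentrations (3-fold dilutions) in DMEM+0.5% FBS for 3 hours at 37° C. Lysates were Western blotted for phospho-mu2, with total mu2 detected by anti-Flag.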

CCCC(=O)N(C)[C@H]1CCN(c2ccc3ncc(-c4cccnc4O)n3n2)C1 [(S)-N-(1-(3-(2-hydroxypyridin-3-yl)imidazo[1,2-b]pyridazin-6-yl)pyrrolidin-3-yl)-N-methylbutyramide]
pIC50 [1]: ≥ 7.00

COC(=O)c1cnn(-c2ccc3ncc(Br)n3n2)c1 [Methyl 1-(3-bromoimidazo[1,2-b]pyridazin-6-yl)-1H-pyrazole-4-carboxylate]
pIC50 [1]: ≥ 7.00

CC(=O)c1cnc2ccc(N3CCN(C(=O)C4(N)CCCC4)CC3)nn12 [1-(6-(4-(1-aminocyclopentanecarbonyl)piperazin-1-yl)imidazo[1,2-b]pyridazin-3-yl)ethanone]
pIC50 [1]: ≥ 7.00

Cc1cnc2ccc(N3CCN(C(=O)[C@@H](N)CC(C)C)CC3)nn12 [(S)-2-amino-4-methyl-1-(4-(3-methylimidazo[1,2-b]pyridazin-6-yl)piperazin-1-yl)pentan-1-one]
pIC50 [1]: ≥ 7.00

CCCC(=O)N(C)[C@H]1CCN(c2ccc3ncc(-c4cccnc4OC)n3n2)C1 [(S)-N-(1-(3-(2-methoxypyridin-3-yl)imidazo[1,2-b]pyridazin-6-yl)pyrrolidin-3-yl)-N-methylbutyramide]
pIC50 [1]: ≥ 7.00

COCCOC(=O)N(C)[C@H]1CCN(c2ccc3ncc(-c4cccnc4OC)n3n2)C1 [(S)-2-methoxyethyl (1-(3-(2-methoxypyridin-3-yl)imidazo[1,2-b]pyridazin-6-yl)pyrrolidin-3-yl)(methyl)carbamate]
pIC50 [1]: ≥ 7.00

COc1ncccc1-c1cnc2ccc(OC[C@@H]3CCCN3C(=O)OC(C)C)nn12 [(S)-isopropyl 2-(((3-(2-methoxypyridin-3-yl)imidazo[1,2-b]pyridazin-6-yl)oxy)methyl)pyrrolidine-1-carboxylate]
pIC50 [1]: ≥ 7.00

CC(C)C[C@H](N)C(=O)N1CCN(c2ccc3nccn3n2)CC1 [(S)-2-amino-1-(4-(imidazo[1,2-b]pyridazin-6-yl)piperazin-1-yl)-4-methylpentan-1-one]
pIC50 [1]: ≥ 6.00

CC(=O)c1cnc2ccc(N3CCN(C(=O)OC(C)C)CC3)nn12 [isopropyl 4-(3-acetylimidazo[1,2-b]pyridazin-6-yl)piperazine-1-carboxylate]
pIC50 [1]: ≥ 7.00

CCCC(=O)N(C)[C@H]1CCN(c2ccc3ncc(-c4ccncc4)n3n2)C1 [(S)-N-methyl-N-(1-(3-(pyridin-4-yl)imidazo[1,2-b]pyridazin-6-yl)pyrrolidin-3-yl)butyramide]
pIC50 [1]: ≥ 7.00

CC(C)NC(=O)N1CCN(c2ccc3ncc(-c4ccccc4)n3n2)CC1 [N-Isopropyl-4-(3-phenylimidazo[1,2-b]pyridazin-6-yl)piperazine-1-carboxamide]
pIC50 [1]: ≥ 8.00

CN(C(=O)N1CCCC1)[C@H]1CCN(c2ccc3ncc(Br)n3n2)C1 [(S)-N-(1-(3-bromoimidazo[1,2-b]pyridazin-6-yl)pyrrolidin-3-yl)-N-methylpyrrolidine-1-carboxamide]
pIC50 [1]: ≥ 7.00

CC(C)C[C@H](N)C(=O)N1CCN(c2ccc3ncc(Br)n3n2)CC1 [(S)-2-amino-1-(4-(3-bromoimidazo[1,2-b]pyridazin-6-yl)piperazin-1-yl)-4-methylpentan-1-one]
pIC50 [1]: ≥ 8.00

COc1cccc(-c2cnc3ccc(NCCOC4CCCC4)nn23)c1 [N-(2-(cyclopentyloxy)ethyl)-3-(3-methoxyphenyl)imidazo[1,2-b]pyridazin-6-amine]
pIC50 [1]: ≥ 7.00

CCOC(=O)N1CCN(c2ccc3ncc(C(=O)NC)n3n2)CC1 [ethyl 4-(3-(methylcarbamoyl)imidazo[1,2-b]pyridazin-6-yl)piperazine-1-carboxylate]
pIC50 [1]: ≥ 7.00

COc1cnccc1-c1cnc2ccc(NCCNC(=O)OC(C)C)nn12 [isopropyl (2-((3-(3-methoxypyridin-4-yl)imidazo[1,2-b]pyridazin-6-yl)amino)ethyl)carbamate]
pIC50 [2]: ≥ 7.00

CC(C)(C)OC(=O)N1CC[C@@H](CNc2ccc3ncc(-c4ccc(CN)cc4)n3n2)C1 [(S)-tert-butyl 3-(((3-(4-(aminomethyl)phenyl)imidazo[1,2-b]pyridazin-6-yl)amino)methyl)pyrrolidine-1-carboxylate]
pIC50 [2]: ≥ 7.00

CN(CCNc1ccc2ncc(-c3ccc(CN)cc3)n2n1)c1ccccc1 [N1-(3-(4-(aminomethyl)phenyl)imidazo[1,2-b]pyridazin-6-yl)-N2-methyl-N2-phenylethane-1,2-diamine]
pIC50 [2]: ≥ 7.00

CCCCNc1ccc2ncc(-c3ccc(OCCN)cc3)n2n1 [3-(4-(2-aminoethoxy)phenyl)-N-butylimidazo[1,2-b]pyridazin-6-amine]
pIC50 [2]: ≥ 7.00

COc1ncccc1-c1cnc2ccc(NCC3CCOC3)nn12 (centres unmarked) [3-(2-methoxypyridin-3-yl)-N-((tetrahydrofuran-3-yl)methyl)imidazo[1,2-b]pyridazin-6-amine]
pIC50 [2]: ≥ 6.00

CC(C)CC(=O)N1CCC[C@H]1CNc1ccc2ncc(-c3ccncc3)n2n1 [(S)-3-methyl-1-(2-(((3-(pyridin-4-yl)imidazo[1,2-b]pyridazin-6-yl)amino)methyl)pyrrolidin-1-yl)butan-1-one]
pIC50 [2]: ≥ 7.00

COc1cnccc1-c1cnc2ccc(NCC3CCCC3)nn12 [N-(cyclopentylmethyl)-3-(3-methoxypyridin-4-yl)imidazo[1,2-b]pyridazin-6-amine]
pIC50 [2]: ≥ 7.00

CCCCNc1ccc2ncc(-c3cc[nH]n3)n2n1 [N-butyl-3-(1H-pyrazol-3-yl)imidazo[1,2-b]pyridazin-6-amine]
pIC50 [2]: ≥ 7.00

CCCCNc1ccc2ncc(-c3ccc(C(=O)N[C@@H]4CCCC[C@@H]4N)cc3)n2n1 [N-((1R,2S)-2-aminocyclohexyl)-4-(6-(butylamino)imidazo[1,2-b]pyridazin-3-yl)benzamide]
pIC50 [2]: ≥ 7.00

CCCCNc1ccc2ncc(-c3ccc(CNCCOC)cc3)n2n1 [N-butyl-3-(4-(((2-methoxyethyl)amino)methyl)phenyl)imidazo[1,2-b]pyridazin-6-amine]
pIC50 [2]: ≥ 6.00

NCc1ccc(-c2cnc3ccc(NCCCF)nn23)cc1 [3-(4-(aminomethyl)phenyl)-N-(3-fluoropropyl)imidazo[1,2-b]pyridazin-6-amine]
pIC50 [2]: ≥ 6.00

CNC(=O)c1ccc(-c2cnc3ccc(NCCN(C)C(=O)OCC(C)C)nn23)cc1 [isobutyl methyl(2-((3-(4-(methylcarbamoyl)phenyl)imidazo[1,2-b]pyridazin-6-yl)amino)ethyl)carbamate]
pIC50 [2]: ≥ 7.00

CCCCNc1ccc2ncc(-c3ccc(CNC(C)C)cc3)n2n1 [N-butyl-3-(4-((isopropylamino)methyl)phenyl)imidazo[1,2-b]pyridazin-6-amine]
pIC50 [2]: ≥ 6.00

CCCCNc1ccc2ncc(-c3ccc(C(=O)NCCN4CCCC4)cc3)n2n1 [4-(6-(butylamino)imidazo[1,2-b]pyridazin-3-yl)-N-(2-(pyrrolidin-1-yl)ethyl)benzamide]
pIC50 [2]: ≥ 7.00

CC(C)OC(=O)N(C)CCNc1ccc2ncc(-c3ccc(C(N)=O)cc3)n2n1 [isopropyl (2-((3-(4-carbamoylphenyl)imidazo[1,2-b]pyridazin-6-yl)amino)ethyl)(methyl)carbamate]
pIC50 [2]: ≥ 8.00

NCc1ccc(-c2cnc3ccc(NCCc4cccc(C(F)(F)F)c4)nn23)cc1 [3-(4-(aminomethyl)phenyl)-N-(3-(trifluoromethyl)phenethyl)imidazo[1,2-b]pyridazin-6-amine]
pIC50 [2]: ≥ 7.00

NCc1ccc(-c2cnc3ccc(NCCCCCF)nn23)cc1 [3-(4-(aminomethyl)phenyl)-N-(5-fluoropentyl)imidazo[1,2-b]pyridazin-6-amine]
pIC50 [2]: ≥ 6.00

CC(C)(C)CCNc1ccc2ncc(-c3ccc(OCCCN)cc3)n2n1 [3-(4-(3-aminopropoxy)phenyl)-N-(3,3-dimethylbutyl)imidazo[1,2-b]pyridazin-6-amine]
pIC50 [2]: ≥ 7.00

CNC(=O)c1ccc(-c2cnc3ccc(NCCN(C)C(=O)OC(C)(C)C)nn23)cc1 [tert-butyl methyl(2-((3-(4-(methylcarbamoyl)phenyl)imidazo[1,2-b]pyridazin-6-yl)amino)ethyl)carbamate]
pIC50 [2]: ≥ 7.00

COC(=O)N1CCC[C@H]1CNc1ccc2ncc(-c3ccc(C4CCCN4)cc3)n2n1 (stereo partly drawn) [(2S)-methyl 2-(((3-(4-(pyrrolidin-2-yl)phenyl)imidazo[1,2-b]pyridazin-6-yl)amino)methyl)pyrrolidine-1-carboxylate]
pIC50 [2]: ≥ 7.00

CC(C)OC(=O)N1CCN(c2ccc3ncc(-c4ccccc4)n3n2)CC1 [4-(3-Phenyl-imidazo[1,2-b]pyridazin-6-yl)-piperazine-1-carboxylic acid isopropyl ester]
pIC50 [2]: ≥ 7.00

COC(=O)N1CCC[C@H]1CNc1ccc2ncc(-c3ccncc3OC)n2n1 [(S)-methyl 2-(((3-(3-methoxypyridin-4-yl)imidazo[1,2-b]pyridazin-6-yl)amino)methyl)pyrrolidine-1-carboxylate]
pIC50 [2]: ≥ 7.00

CNCCNC(=O)c1ccc(-c2cnc3ccc(NCCCN(C)C(=O)C(C)(C)C)nn23)cc1 [N-(2-(methylamino)ethyl)-4-(6-((3-(N-methylpivalamido)propyl)amino)imidazo[1,2-b]pyridazin-3-yl)benzamide]
pIC50 [2]: ≥ 6.00
